≈ marks a conversion by molar mass, not a printed value. Counter-ions that a name gives are not always drawn.
Assays:
[1] = plasma vs pH 7.6 buffer simulating muscular tissue; cited from earlier work
physchem = settings: water, thermodynamic from solid

Cc1cc2c(s1)Nc1ccccc1N=C2N1CCN(C)CC1.O.O=C(O)c1cc2ccccc2c(Cc2c(O)c(C(=O)O)cc3ccccc23)c1O [olanzapine pamoate]
solubilization enhancement in plasma compared to pH 7.6 buffer [1]: 18 fold

CN(C)C(=O)N[C@H]1CC[C@H](CCN2CCN(c3cccc(Cl)c3Cl)CC2)CC1 [cariprazine free base, cariprazine]
solubility (physchem): 6 µg/mL (≈ 14 µM)

CN(C)C(=O)NC1CCC(CCN2CCN(c3cccc(Cl)c3Cl)CC2)CC1 (stereo in doubt) [cariprazine hydrochloride salt, trans-N-{4-[2-[4-(2,3-dichlorophenyl)piperazine-1-yl]ethyl]cyclohexyl}-N′, N′-dimethylurea hydrochloride]
solubility (physchem): > 5000 µg/mL

Source: patent US20230293514A1, “INJECTABLE DEPOT FORMULATION COMPRISING CARIPRAZINE FREE BASE PARTICLES” (Anxo Pharmaceutical Co., Ltd., priority 2022, published 2023)
